Reference: patent publication US7902254B1, “Method for treating conditions mediated by PPAR using macelignan” (Newtree Co., Ltd., priority 2005, dated 2011)

How the values were obtained:
[1] = test system: obesity/diabetes mice (db/db mice); experiment: Anti-diabetes effect in obesity/diabetes mouse model; type: in vivo; conditions: for OGTT blood sugar: 12th day; for blood sugar level: 14 days; for blood sugar level / Adiponectin concentration in blood / Insulin concentration in blood: db/db mice; for Adiponectin concentration in blood / Insulin concentration in blood: 14th day
From the text: A mouse (db/db mouse; The Jackson Laboratory, USA) used in the present invention as an obesity/diabetes model is deficient in leptin genes and cannot control its appetite, and thus takes an excessive amount of food continuously. […] Thus, it can be a typical model of obesity and metabolic diseases. Additionally, it has a higher blood sugar level and can be a typical model of non-insulin-dependent diabetes mellitus. To investigate the effect of preventing and treating diabetes of macelignan, seven mice of 10 week-aged obesity/diabetes mice (db/db mice) were used per test group. To the test groups, macelignan suspended in 0.25% carboxymethyl cellulose was orally administered with the dose of 5 mg/kg (body weight), 10 mg/kg (body weight) and 25 mg/kg (body weight), once per day at a predetermined time, for 14 days. As a control, 0.25% carboxymethyl cellulose was orally administered alone to normal mice in the same dose as administered to the test group. As another control, 0.25% carboxymethyl cellulose was orally administered alone to obesity/diabetes mice in the same dose as administered to the test group. As still another control, 10 mg/kg (body weight) of troglitazone was orally administered. Blood sugar levels of the obesity/diabetes mice were determined from six days before the administration, once per three days. On the 12th day after the oral administration, the test group and the controls were subjected to the Oral Glucose Tolerance Test (OGTT). For this test, obesity/diabetes mice in the test group and the controls were fasted for at least 18 hours, glucose was orally administered to the mice in a dose of 3 g/kg (body weight), and then variations in the blood sugar were measured at 0 minutes, 30 minutes, 60 minutes and 120 minutes after the glucose administration. Additionally, on the 14th day of the oral administration, the final blood sugar level, insulin content in blood (mouse insulin ELISA Kit, Linco Research, o. EZRMI-BK, USA) and adiponectin content in blood (Adiponectin Quantikine ELISA Kit, R&D systems, No. MRP300, USA) were analyzed.

[2] = test system: obesity/diabetes mice (db/db mice); experiment: Effect upon hyperlipidemia and cardiovascular diseases in obesity/diabetes mouse model; type: in vivo; conditions: 14 days
Experimental: To investigate effects of macelignan upon the treatment of hyperlipidemia and cardiovascular diseases, seven mice of 10 week-aged obesity/diabetes mice (db/db mice) were used per test group. To the test groups, macelignan suspended in 0.25% carboxymethyl cellulose was orally administered in an administration dose of 5 mg/kg (body weight), 10 mg/kg (body weight) and 25 mg/kg (body weight), once per day at a predetermined time, for 14 days. As a control, 0.25% carboxymethyl cellulose was orally administered alone to normal mice in the same dose as administered to the test group. As another control, 0.25% carboxymethyl cellulose was orally administered alone to obesity/diabetes mice in the same dose as administered to the test group. As still another control, 10 mg/kg (body weight) of troglitazone was orally administered. Fourteen days after the administration, triglyceride concentration in blood (triglyceride measuring kit, Wako, Japan), free fatty acid concentration in blood (free fatty acid measuring kit, Wako, Japan), total cholesterol content in blood (ASAN T-CHO-Lq Reagents, Asan Pharmaceutical Co. Ltd., Korea), HDL-cholesterol content in blood (ASAN HDL-Cholesterol, Asan Pharmaceutical Co. Ltd., Korea), IL-6 content in blood (IL-6 Quantikine ELISA, R&D systems, USA) and TNF-α content in blood were measured for the test groups and the controls.

[3] = test system: target genes of PPARγ (CD36, LPL, ACS, GyK); experiment: Expression of target genes of PPARγ in liver tissue of obesity/diabetes mouse model; type: in vivo; conditions: 5, 10 and 25 mg/kg oral, 14 days, db/db mice, p<0.05 vs control
Experimental: Liver tissue was removed from the test groups and the controls treated by oral administration in Examples 5˜8. The liver tissue was homogenized in liquid nitrogen and the total RNA was isolated from the crushed tissues by using TRIZOL (Invitrogen, USA). The total RNA isolated as described above was determined and cDNA was synthesized by using reverse transcriptase at 42° C. for 20 minutes. The cDNA was subjected to RT-PCR by repeating the cycle of 95° C./1 minute, 56° C./30 seconds and 72° C./2 minutes thirty times with the following primers and Taq polymerase: primers for CD36 amplification (SEQ ID NO: 5 and SEQ ID NO: 6), primers for LPL amplification (SEQ ID NO: 13 and SEQ ID NO: 14), primers for ACS amplification (SEQ ID NO: 17 (AGCAGAGCTTCGCACGGC) and SEQ ID NO: 18 ([…]) and primers for GyK amplification (SEQ ID NO: 19 ([…]) and SEQ ID NO: 20 ([…])). Expression of the genes was determined by real-time PCR.

[4] = Oral toxicity test; conditions: rat, in vivo; oral administration, rats; read-out: lethal dose 50% (LD50)

**Q.** For `COc1cc(C[C@H](C)[C@H](C)Cc2ccc3c(c2)OCO3)ccc1O` (single isomer, unassigned) [macelignan], which OGTT blood sugar ([1]; 0 min. after glucose 3 g/kg, 5 mg/kg oral) is on record?
**A.** 379.14 ± 26.23 mg/dL

**Q.** And the OGTT blood sugar ([1]; 0 min. after glucose 3 g/kg, 10 mg/kg oral)?
**A.** 313.86 ± 51.40 mg/dL

**Q.** And the OGTT blood sugar ([1]; 0 min. after glucose 3 g/kg, 25 mg/kg oral)?
**A.** 319.14 ± 35.25 mg/dL

**Q.** What about the blood sugar level ([1]; 5 mg/kg oral once per day) of the same compound?
**A.** 552.84 ± 47.95 mg/dL

**Q.** What about the “Adiponectin concentration in blood” value ([1]; 5 mg/kg oral) of the same compound?
**A.** 5111.14 ± 925.88 ng/mL

**Q.** And the “Insulin concentration in blood” value ([1]; 5 mg/kg oral)?
**A.** 26.33 ± 10.78 ng/mL

**Q.** What about the blood sugar level ([1]; 10 mg/kg oral once per day) of the same compound?
**A.** 501.03 ± 43.67 mg/dL

**Q.** And the “Adiponectin concentration in blood” value ([1]; 10 mg/kg oral)?
**A.** 6882.86 ± 250.05 ng/mL

**Q.** And the “Insulin concentration in blood” value ([1]; 10 mg/kg oral)?
**A.** 16.66 ± 7.03 ng/mL

**Q.** What about the blood sugar level ([1]; 25 mg/kg oral once per day) of the same compound?
**A.** 412.74 ± 31.15 mg/dL

**Q.** What about the “Adiponectin concentration in blood” value ([1]; 25 mg/kg oral) of the same compound?
**A.** 7864.00 ± 808.21 ng/mL

**Q.** And the “Insulin concentration in blood” value ([1]; 25 mg/kg oral)?
**A.** 8.51 ± 3.67 ng/mL

**Q.** And the OGTT blood sugar ([1]; 30 mins. after glucose 3 g/kg, 5 mg/kg oral)?
**A.** 636.85 ± 63.29 mg/dL

**Q.** What about the OGTT blood sugar ([1]; 30 mins. after glucose 3 g/kg, 10 mg/kg oral) of the same compound?
**A.** 670.14 ± 94.20 mg/dL

**Q.** What about the OGTT blood sugar ([1]; 30 mins. after glucose 3 g/kg, 25 mg/kg oral) of the same compound?
**A.** 580.00 ± 101.37 mg/dL

**Q.** What about the OGTT blood sugar ([1]; 60 mins. after glucose 3 g/kg, 5 mg/kg oral) of the same compound?
**A.** 613.38 ± 24.36 mg/dL

**Q.** What about the OGTT blood sugar ([1]; 60 mins. after glucose 3 g/kg, 10 mg/kg oral) of the same compound?
**A.** 593.11 ± 27.15 mg/dL

**Q.** And the OGTT blood sugar ([1]; 60 mins. after glucose 3 g/kg, 25 mg/kg oral)?
**A.** 509.70 ± 27.71 mg/dL

**Q.** What about the OGTT blood sugar ([1]; 120 mins. after glucose 3 g/kg, 5 mg/kg oral) of the same compound?
**A.** 564.21 ± 29.86 mg/dL

**Q.** What about the OGTT blood sugar ([1]; 120 mins. after glucose 3 g/kg, 10 mg/kg oral) of the same compound?
**A.** 529.46 ± 17.55 mg/dL

**Q.** What about the OGTT blood sugar ([1]; 120 mins. after glucose 3 g/kg, 25 mg/kg oral) of the same compound?
**A.** 431.21 ± 59.18 mg/dL

**Q.** And the “Free fatty acid in blood” value ([2]; 5 mg/kg oral)?
**A.** 1.26 ± 0.19 mEq/l

**Q.** And the HDL-cholesterol in blood ([2]; 5 mg/kg oral)?
**A.** 43.5 ± 6.73 mg/dL

**Q.** What about the IL-6 in blood ([2]; 5 mg/kg oral) of the same compound?
**A.** 21.42 ± 11.42 pg/mL

**Q.** What about the TNF-α in blood ([2]; 5 mg/kg oral) of the same compound?
**A.** 36.92 ± 16.27 pg/mL

**Q.** What about the Total cholesterol in blood ([2]; 5 mg/kg oral) of the same compound?
**A.** 119 ± 13.8 mg/dL

**Q.** And the Triglyceride in blood ([2]; 5 mg/kg oral)?
**A.** 98.71 ± 36.62 mg/dL

**Q.** What about the “Free fatty acid in blood” value ([2]; 10 mg/kg oral) of the same compound?
**A.** 1.16 ± 0.31 mEq/l

**Q.** And the HDL-cholesterol in blood ([2]; 10 mg/kg oral)?
**A.** 42.2 ± 7.29 mg/dL

**Q.** What about the IL-6 in blood ([2]; 10 mg/kg oral) of the same compound?
**A.** 12.04 ± 5.47 pg/mL

**Q.** What about the TNF-α in blood ([2]; 10 mg/kg oral) of the same compound?
**A.** 16.41 ± 9.60 pg/mL

**Q.** What about the Total cholesterol in blood ([2]; 10 mg/kg oral) of the same compound?
**A.** 110 ± 15.2 mg/dL

**Q.** What about the Triglyceride in blood ([2]; 10 mg/kg oral) of the same compound?
**A.** 91.71 ± 44.04 mg/dL

**Q.** And the “Free fatty acid in blood” value ([2]; 25 mg/kg oral)?
**A.** 1.14 ± 0.15 mEq/l

**Q.** What about the HDL-cholesterol in blood ([2]; 25 mg/kg oral) of the same compound?
**A.** 46.6 ± 3.89 mg/dL

**Q.** What about the IL-6 in blood ([2]; 25 mg/kg oral) of the same compound?
**A.** 4.86 ± 2.46 pg/mL

**Q.** What about the TNF-α in blood ([2]; 25 mg/kg oral) of the same compound?
**A.** 27.54 ± 9.77 pg/mL

**Q.** What about the Total cholesterol in blood ([2]; 25 mg/kg oral) of the same compound?
**A.** 110 ± 23.7 mg/dL

**Q.** What about the Triglyceride in blood ([2]; 25 mg/kg oral) of the same compound?
**A.** 84.00 ± 31.24 mg/dL

**Q.** What about the “mRNA expression of CD36, LPL, ACS and GyK in liver tissue” value [3] of the same compound?
**A.** significantly increased

**Q.** And the LD50 [4]?
**A.** ≥ 2000 mg/kg
